Assay results as given in the NIST ThermoML archive (doi:10.1016/j.tca.2014.03.033).
± gives the expanded uncertainty stated by the source.

Assay: molar heat capacity at constant pressure
Conditions: 101.33 kPa, Crystal, Vacuum adiabatic calorimetry

O=P([O-])([O-])[O-].O=P([O-])([O-])[O-].O=P([O-])([O-])[O-].[K+].[Th+4].[Th+4] [potassium dithorium trisphosphate]
Conditions	molar heat capacity at constant pressure [J/K/mol]
4 K	0.316 ± 0.013
5 K	0.395 ± 0.014
6 K	0.4889 ± 0.014
7 K	0.5352 ± 0.015
8 K	0.4432 ± 0.014
9 K	0.3222 ± 0.013
10 K	0.3252 ± 0.013
15 K	2.606 ± 0.03
20 K	6.715 ± 0.052
25 K	12.67 ± 0.07
30 K	19.97 ± 0.09
35 K	28.47 ± 0.1
40 K	37.38 ± 0.12
45 K	46.43 ± 0.14
50 K	56.01 ± 0.16
60 K	73.35 ± 0.19
70 K	91.89 ± 0.23
80 K	109.4 ± 0.3
90 K	125.4 ± 0.3
100 K	140 ± 0.3
110 K	153.5 ± 0.4
120 K	166.2 ± 0.4
130 K	178 ± 0.4
140 K	189.2 ± 0.4
150 K	199.8 ± 0.4
160 K	209.9 ± 0.4
170 K	219.6 ± 0.4
180 K	229 ± 0.4
190 K	238.2 ± 0.4
200 K	247.3 ± 0.5
210 K	256 ± 0.5
220 K	264.2 ± 0.5
230 K	271.8 ± 0.5
240 K	278.6 ± 0.5
250 K	284.7 ± 0.5
260 K	290.3 ± 0.5
270 K	295.7 ± 0.5
273.15 K	297.5 ± 0.5
280 K	301.3 ± 0.5
290 K	307.4 ± 0.5
